# Data: patent US20070218086A1, “Adjuvant Composition and Methods for Its Use” (priority 2004, published 2007)
# Tests used:
# [1] = tested on: primary polyclonal human Vγ9/Vδ2 T cells; assay: TNFα release assay (cytokine release assay); assay type: cell-based; settings: T-cell, 24 h, read-out: in vitro EC50
# Description: Cells (primary polyclonal human Vγ9/Vδ2 T cells which had been expanded in vitro and stored frozen at day 12-15 of expansion) are thawed and rinsed them twice and centrifuged. Upon elimination of supernatant and resuspension of cells, cells are incubated for 24h at 37° C. in the presence of IL2 100 UI/ml (fmal concentration). Cells are washed and centrifuged, following which the supernatant is eliminated and the cells are resuspended and adjusted to the adequate final concentration. Cells are added to the wells of a 96-well plate.
# To one row of wells are added a standard diluation series of 3-(bromomethyl)-3-butanol-1-yl-diphosphate (BrHPP). Compounds to be tested, in this case CHDMAPP and HDMAPP are added to experimental wells, after several dilutions.
# Full plates are incubated 24 hours at 37° C. for stimulation of the γδ cells with the BrHPP standard as well as isopentenyl pyrophosphate (IPP) for comparison, and test compounds CHDMAPP and HDMAPP. After this time, 100 μl of culture supernatant is taken for TNFα dosage. Measurement of the released TNFa dosageis performed as described by the manufacturer's instruction in the TNFa enzyme immunoassay kit (ref. 11121, Immunotech-Beckman Coulter). OD at 405 nm is read, the OD being proportional to the concentration of released TNFα in the culture supernatant. The data are processed with the Excel software to compare concentration of test compound versus concentration of TNFα and for the calculation of the EC50 for each test compound.
# [2] = tested on: IFNγ, TNF-alpha, IL2, IL4, IL5 and IL6; assay type: in vivo, monkeys
# γδ T cells = assay: in vivo Vγ9/Vδ2+ T cell stimulation in cynomolgus monkeys
# Vγ9/Vδ2+ T cell = assay: in vitro Vγ9/Vδ2+ T cell stimulation; assay type: cell-based
SMILES,EC50 [1] [nM],cytokine production (IFNγ) over that observed with the phosphoantigen alone ([2]; cytokines known to be induced by phosphoantigen alone (IFNγ)),"cytokine production over that observed with the Hybrid-I formulation alone ([2]; serum cytokines, 8 monkeys per group, FIG. 3)","EC50 (γδ T cells; Macaca fascicularis, T-cell, in cynomolgus monkeys, dosage studies described in co-pending PCT/IB2003/006375) [nM]","activation of γδ T cells (γδ T cells; administration to cynomolgus monkeys, very low doses)",EC50 (Vγ9/Vδ2+ T cell) [nM]
"CC(O)(CBr)CCOP(=O)(O)OP(=O)(O)O (stereo not drawn) [BrHPP, 3-(bromomethyl)-3-butanol-1-yl-diphosphate, reference compound]",~18.6,,,,,
"C/C(=C\CCP(=O)(O)OP(=O)(O)O)CO [CHDMAPP, (E)-5-hydroxy-4-methylpent-3-enyl pyrophosphonate]",~0.873,large increase of cytokine production,large and statistically significant increase in cytokine production,,,
"C/C(=C\COP(=O)(O)OP(=O)(O)O)CO [HDMAPP, (E)-4-Hydroxy-3-methylbut-2-enyl diphosphate]",~0.758,,,~0.005,strong activation of γδ T cells,~0.6
"C=C(C)CCO[P@@](=O)(O)OP(=O)(O)O [IPP, isopentenyl pyrophosphate, reference compound]",~31000,,,,,
